Measured values as given in patent US11053213B2, “Pharmaceutical compounds” (ALMAC DISCOVERY LIMITED, priority 2016, dated 2021).

Target: USP19 (Homo sapiens (Human), UniProt O94966)
Experiment: USP19 activity assay (fluorescence polarisation, Ubiquitin-Lys-TAMRA substrate)
Format: biochemical
Conditions: full-length USP19 2.5 nM, 30 min pre-incubation, Ub substrate 500 nM; average of at least two duplicate experiments

Chain of USP19 (O94966 whole entry): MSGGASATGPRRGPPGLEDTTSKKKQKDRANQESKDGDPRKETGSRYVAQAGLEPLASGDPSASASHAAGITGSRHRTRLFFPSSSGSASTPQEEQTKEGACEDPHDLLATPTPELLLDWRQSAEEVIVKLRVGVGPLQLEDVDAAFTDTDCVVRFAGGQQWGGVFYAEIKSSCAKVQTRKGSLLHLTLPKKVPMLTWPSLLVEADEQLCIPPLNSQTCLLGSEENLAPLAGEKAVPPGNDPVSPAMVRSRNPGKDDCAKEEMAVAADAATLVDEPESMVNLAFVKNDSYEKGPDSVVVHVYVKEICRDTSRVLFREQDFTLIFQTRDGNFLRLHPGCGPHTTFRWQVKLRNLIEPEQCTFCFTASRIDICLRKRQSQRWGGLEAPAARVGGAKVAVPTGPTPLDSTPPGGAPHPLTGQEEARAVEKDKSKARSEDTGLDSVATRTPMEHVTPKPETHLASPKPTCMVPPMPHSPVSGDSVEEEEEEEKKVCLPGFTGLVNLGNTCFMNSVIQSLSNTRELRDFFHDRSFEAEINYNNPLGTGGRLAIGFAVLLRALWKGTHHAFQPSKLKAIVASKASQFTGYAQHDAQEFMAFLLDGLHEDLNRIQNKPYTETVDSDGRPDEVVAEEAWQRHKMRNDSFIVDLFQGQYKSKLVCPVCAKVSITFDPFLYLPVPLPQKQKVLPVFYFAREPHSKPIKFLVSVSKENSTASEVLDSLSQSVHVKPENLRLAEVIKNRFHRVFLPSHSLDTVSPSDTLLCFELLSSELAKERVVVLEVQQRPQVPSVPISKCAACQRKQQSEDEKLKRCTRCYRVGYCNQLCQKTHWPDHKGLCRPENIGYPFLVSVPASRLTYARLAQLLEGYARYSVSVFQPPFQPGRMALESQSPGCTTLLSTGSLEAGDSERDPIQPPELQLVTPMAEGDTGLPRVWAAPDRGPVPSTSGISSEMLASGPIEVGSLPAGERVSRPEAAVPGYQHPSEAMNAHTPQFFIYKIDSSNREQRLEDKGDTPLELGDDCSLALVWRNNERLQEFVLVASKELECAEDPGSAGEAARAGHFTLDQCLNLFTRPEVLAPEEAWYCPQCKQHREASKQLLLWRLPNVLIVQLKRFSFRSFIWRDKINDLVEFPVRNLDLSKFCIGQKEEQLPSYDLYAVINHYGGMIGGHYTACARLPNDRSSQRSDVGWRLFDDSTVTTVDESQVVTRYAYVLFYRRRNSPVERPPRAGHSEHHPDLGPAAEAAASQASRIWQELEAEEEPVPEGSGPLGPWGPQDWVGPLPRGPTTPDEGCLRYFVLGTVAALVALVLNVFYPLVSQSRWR

IC50 [µM] | SMILES
< 0.5 | C[C@H](CC1CCCCC1)C(=O)N1CC[C@@](O)(Cn2cc(C(=O)N3CCC(O)CC3)c(-c3ccccc3)cc2=O)C(C)(C)C1 [Example 228, 1-(((S)-1-((R)-3-Cyclohexyl-2-methylpropanoyl)-4-hydroxy-3,3-dimethylpiperidin-4-yl)methyl)-5-(4-hydroxypiperidine-1-carbonyl)-4-phenylpyridin-2(1H)-one]
50 to 250 | CN(C)C(=O)c1cn(CC2(O)CCN(C(=O)C3(CC(F)F)CC3)CC23CCCC3)c(=O)cc1-c1ccccc1 (stereo not shown) [Example 178, 1-((7-(1-(2,2-Difluoroethyl)cyclopropane-1-carbonyl)-10-hydroxy-7-azaspiro[4.5]decan-10-yl)methyl)-N,N-dimethyl-6-oxo-4-phenyl-1,6-dihydropyridine-3-carboxamide]
5 to 50 | C[C@H](CC(=O)N1CCC(O)(Cn2cc(C(=O)N(C)c3ccccc3)c(-c3ccccc3)cc2=O)CC1)c1ccccc1 [Example 107, (R)-1-((4-Hydroxy-1-(3-phenylbutanoyl)piperidin-4-yl)methyl)-N-methyl-6-oxo-N,4-diphenyl-1,6-dihydropyridine-3-carboxamide]
5 to 50 | CCC(CC1CCCCC1)C(=O)N1CCC(O)(Cn2cnc(-c3ccccc3F)cc2=O)CC1 (stereo not shown) [Example 40, 3-((1-(2-(Cyclohexylmethyl)butanoyl)-4-hydroxypiperidin-4-yl)methyl)-6-(2-fluorophenyl)pyrimidin-4(3H)-one]
5 to 50 | C[C@H](CC(=O)N1CCC(O)(Cn2cc(C(=O)NC3CCCCC3)c(-c3ccccc3)cc2=O)CC1)c1ccccc1 [Example 65, (R)—N-Cyclohexyl-1-((4-hydroxy-1-(3-phenylbutanoyl)piperidin-4-yl)methyl)-6-oxo-4-phenyl-1,6-dihydropyridine-3-carboxamide]
5 to 50 | C[C@H](CC1CCCCC1)C(=O)N1CC[C@](O)(Cn2cc(C(=O)N3CCNCC3)c(-c3ccccc3)cc2=O)C(C)(C)C1 [Example 125, 1-(((R)-1-((R)-3-Cyclohexyl-2-methylpropanoyl)-4-hydroxy-3,3-dimethylpiperidin-4-yl)methyl)-4-phenyl-5-(piperazine-1-carbonyl)pyridin-2(1H)-one]
0.5 to 5 | C[C@H](CC(=O)N1CCC(O)(Cn2cc(C(=O)N3CCC(CO)CC3)c(-c3ccccc3)cc2=O)CC1)c1ccccc1 [Example 117, (R)-1-((4-Hydroxy-1-(3-phenylbutanoyl)piperidin-4-yl)methyl)-5-(4-(hydroxymethyl)piperidine-1-carbonyl)-4-phenylpyridin-2(1H)-one]
0.5 to 5 | CC(C)N(C)C(=O)c1cn(CC2(O)CCN(C(=O)C[C@@H](C)c3ccccc3)CC2)c(=O)cc1-c1ccccc1F [Example 90, (R)-4-(2-Fluorophenyl)-1-((4-hydroxy-1-(3-phenylbutanoyl)piperidin-4-yl)methyl)-N-isopropyl-N-methyl-6-oxo-1,6-dihydropyridine-3-carboxamide]
< 0.5 | C[C@H](CC1CCCCC1)C(=O)N1CC[C@@](O)(Cn2cc(C(=O)N(C)C)c(C3CC3)cc2=O)C2(CCCC2)C1 [Example 232, 1-(((S)-7-((R)-3-Cyclohexyl-2-methylpropanoyl)-10-hydroxy-7-azaspiro[4.5]decan-10-yl)methyl)-4-cyclopropyl-N,N-dimethyl-6-oxo-1,6-dihydropyridine-3-carboxamide]
50 to 250 | CC(C)N(C)C(=O)c1cn(CC2(O)CCN(C(=O)C[C@@H](C)c3ccccc3)CC2)c(=O)cc1-c1ccccc1C#N [Example 38, (R)-4-(2-Cyanophenyl)-1-((4-hydroxy-1-(3-phenylbutanoyl)piperidin-4-yl)methyl)-N-isopropyl-N-methyl-6-oxo-1,6-dihydropyridine-3-carboxamide]
0.5 to 5 | CC(C)C(CC1CCCCC1)C(=O)N1CCC(O)(Cn2cnc(-c3ccccc3F)cc2=O)C(C)(C)C1 (stereo not shown) [Example 25, 3-((1-(2-(Cyclohexylmethyl)-3-methylbutanoyl)-4-hydroxy-3,3-dimethylpiperidin-4-yl)methyl)-6-(2-fluorophenyl)pyrimidin-4(3H)-one]
< 0.5 | CN(C)C(=O)c1cn(C[C@]2(O)CCN(C(=O)[C@H](CO)CC3CCC3)CC2(C)C)c(=O)cc1-c1ccccc1 [Example 166, 1-(((S)-1-((S)-3-Cyclobutyl-2-(hydroxymethyl)propanoyl)-4-hydroxy-3,3-dimethylpiperidin-4-yl)methyl)-N,N-dimethyl-6-oxo-4-phenyl-1,6-dihydropyridine-3-carboxamide]
5 to 50 | Cc1nc(-c2ccccc2)cc(=O)n1CC1(O)CCN(C(=O)C[C@@H](C)c2ccccc2)CC1 [Example 18, (R)-3-((4-Hydroxy-1-(3-phenylbutanoyl)piperidin-4-yl)methyl)-2-methyl-6-phenylpyrimidin-4(3H)-one]
5 to 50 | CON(C)C(=O)c1cn(CC2(O)CCN(C(=O)C[C@@H](C)c3ccccc3)CC2)c(=O)cc1-c1ccccc1 [Example 97, (R)-1-((4-Hydroxy-1-(3-phenylbutanoyl)piperidin-4-yl)methyl)-N-methoxy-N-methyl-6-oxo-4-phenyl-1,6-dihydropyridine-3-carboxamide]
5 to 50 | C[C@H](CC1CCCCC1)C(=O)N1CC[C@](O)(Cn2cc(C(=O)N(C)C)c(-c3ccccc3)cc2=O)C2(CCCC2)C1 [Example 209, 1-(((R)-7-((R)-3-Cyclohexyl-2-methylpropanoyl)-10-hydroxy-7-azaspiro[4.5]decan-10-yl)methyl)-N,N-dimethyl-6-oxo-4-phenyl-1,6-dihydropyridine-3-carboxamide]
5 to 50 | C[C@H](CC(=O)N1CCC(O)(Cn2cc(C#N)c(-c3ccccc3)cc2=O)CC1)c1ccccc1 [Example 114, (R)-1-((4-Hydroxy-1-(3-phenylbutanoyl)piperidin-4-yl)methyl)-6-oxo-4-phenyl-1,6-dihydropyridine-3-carbonitrile]
0.5 to 5 | C[C@H](CC(=O)N1CCC(O)(Cn2cc(-c3ccccn3)c(-c3ccccc3)cc2=O)CC1)c1ccccc1 [Example 91, (R)-1′-((4-Hydroxy-1-(3-phenylbutanoyl)piperidin-4-yl)methyl)-4′-phenyl-[2,3′-bipyridin]-6′(1′H)-one]
< 0.5 | CC(=O)N1CCN(C(=O)c2cn(CC3(O)CCN(C(=O)[C@H](C)CC4CCCCC4)CC3(C)C)c(=O)cc2-c2ccccc2)CC1 (stereo partly drawn) [Example 169, 5-(4-Acetylpiperazine-1-carbonyl)-1-((1-((R)-3-cyclohexyl-2-methylpropanoyl)-4-hydroxy-3,3-dimethylpiperidin-4-yl)methyl)-4-phenylpyridin-2(1H)-one]
5 to 50 | C[C@H](CC(=O)N1CCC(O)(Cn2cc(-c3cncnc3)c(-c3ccccc3)cc2=O)CC1)c1ccccc1 [Example 103, (R)-1-((4-Hydroxy-1-(3-phenylbutanoyl)piperidin-4-yl)methyl)-4-phenyl-5-(pyrimidin-5-yl)pyridin-2(1H)-one]
50 to 250 | CN(C)C(=O)c1cn(CC2(O)CCN(C(=O)c3n[nH]c4ccccc34)CC23CCCC3)c(=O)cc1-c1ccccc1 (stereo not shown) [Example 188, 1-((10-Hydroxy-7-(1H-indazole-3-carbonyl)-7-azaspiro[4.5]decan-10-yl)methyl)-N,N-dimethyl-6-oxo-4-phenyl-1,6-dihydropyridine-3-carboxamide]
< 0.5 | C[C@H](CC1CCCCC1)C(=O)N1CC[C@@](O)(Cn2cc(C(=O)N3CCN(C)CC3)c(-c3ccccc3)cc2=O)C2(CCCC2)C1 [Example 240, 1-(((S)-7-((R)-3-Cyclohexyl-2-methylpropanoyl)-10-hydroxy-7-azaspiro[4.5]decan-10-yl)methyl)-5-(4-methylpiperazine-1-carbonyl)-4-phenylpyridin-2(1H)-one]
< 0.5 | CN(C)C(=O)c1cn(C[C@]2(O)CCN(C(=O)[C@H](CO)CC3CCCCC3)CC2(C)C)c(=O)cc1-c1ccccc1 [Example 152, 1-(((S)-1-((S)-3-Cyclohexyl-2-(hydroxymethyl)propanoyl)-4-hydroxy-3,3-dimethylpiperidin-4-yl)methyl)-N,N-dimethyl-6-oxo-4-phenyl-1,6-dihydropyridine-3-carboxamide]
50 to 250 | C[C@H](CC(=O)N1CCC(O)(Cn2cc(-c3ccccc3)c(N(C)C)cc2=O)CC1)c1ccccc1 [Example 11, (R)-4-(Dimethylamino)-1-((4-hydroxy-1-(3-phenylbutanoyl)piperidin-4-yl)methyl)-5-phenylpyridin-2(1H)-one]
50 to 250 | O=C(C[C@H](c1ccccc1)C(F)(F)F)N1CCC(O)(Cn2cnc(-c3ccccc3F)cc2=O)CC1 [Example 48, (R)-6-(2-Fluorophenyl)-3-((4-hydroxy-1-(4,4,4-trifluoro-3-phenylbutanoyl)piperidin-4-yl)methyl)pyrimidin-4(3H)-one]
0.5 to 5 | C[C@H](CC1CCC1)C(=O)N1CC[C@@](O)(Cn2cc(C(=O)N(C)C)c(-c3ccccc3F)cc2=O)C(C)(C)C1 [Example 235, 1-(((S)-1-((R)-3-Cyclobutyl-2-methylpropanoyl)-4-hydroxy-3,3-dimethylpiperidin-4-yl)methyl)-4-(2-fluorophenyl)-N,N-dimethyl-6-oxo-1,6-dihydropyridine-3-carboxamide]
0.5 to 5 | C[C@H](CC(F)(F)F)C(=O)N1CC[C@@](O)(Cn2cc(C(=O)N(C)C)c(-c3ccccc3)cc2=O)C(C)(C)C1 [Example 204, 1-(((S)-4-Hydroxy-3,3-dimethyl-1-((R)-4,4,4-trifluoro-2-methylbutanoyl)piperidin-4-yl)methyl)-N,N-dimethyl-6-oxo-4-phenyl-1,6-dihydropyridine-3-carboxamide]
< 0.5 | C[C@H](CC(F)(F)F)C(=O)N1CC[C@@](O)(Cn2cc(C(=O)N3CCN(C)CC3)c(-c3ccccc3)cc2=O)C2(CCCC2)C1 [Example 251, 1-(((S)-10-Hydroxy-7-((R)-4,4,4-trifluoro-2-methylbutanoyl)-7-azaspiro[4.5]decan-10-yl)methyl)-5-(4-methylpiperazine-1-carbonyl)-4-phenylpyridin-2(1H)-one]
< 0.5 | C[C@H](CC1CCCCC1)C(=O)N1CC[C@@](O)(Cn2cc(C(=O)N(C)C)c(-c3ccccc3)cc2=O)C(C)(C)C1 [Example 121, 1-(((S)-1-((R)-3-Cyclohexyl-2-methylpropanoyl)-4-hydroxy-3,3-dimethylpiperidin-4-yl)methyl)-N,N-dimethyl-6-oxo-4-phenyl-1,6-dihydropyridine-3-carboxamide]
